Measured values as given in publication PMC10141580, “Cyclic Dichalcogenides Extend the Reach of Bioreductive Prodrugs to Harness Thiol/Disulfide Oxidoreductases: Applications to seco-Duocarmycins Targeting the Thioredoxin System” (ACS Central Science, 2023).
Where two headings read alike, the source gives them in different places.

Test system: NCI-60 standardized human tumor cell line panel
Test: cells
Type: cell-based
[1] = cell line A549/ATCC (LC:A549/ATCC), TMI sheet
[2] = cell line BT-549 (BR:BT-549), TMI sheet
[3] = cell line CCRF-CEM (LE:CCRF-CEM), TMI sheet
[4] = cell line COLO 205 (CO:COLO 205), TMI sheet
[5] = cell line EKVX (LC:EKVX), TMI sheet
[6] = cell line HCC-2998 (CO:HCC-2998), TMI sheet
[7] = cell line HCT-15 (CO:HCT-15), TMI sheet
[8] = cell line HCT-116 (CO:HCT-116), TMI sheet
[9] = cell line HL-60(TB) (LE:HL-60(TB)), TMI sheet
[10] = cell line HOP-62 (LC:HOP-62), TMI sheet
[11] = cell line HOP-92 (LC:HOP-92), TMI sheet
[12] = cell line HT29 (CO:HT29), TMI sheet
[13] = cell line K-562 (LE:K-562), TMI sheet
[14] = cell line KM12 (CO:KM12), TMI sheet
[15] = cell line LOX IMVI (ME:LOX IMVI), TMI sheet
[16] = cell line M14 (ME:M14), TMI sheet
[17] = cell line MALME-3M (ME:MALME-3M), TMI sheet
[18] = cell line MCF7 (BR:MCF7), TMI sheet
[19] = cell line MDA-MB-435 (ME:MDA-MB-435), TMI sheet
[20] = cell line MOLT-4 (LE:MOLT-4), TMI sheet
[21] = cell line NCI-H23 (LC:NCI-H23), TMI sheet
[22] = cell line NCI-H226 (LC:NCI-H226), TMI sheet
[23] = cell line RPMI-8226 (LE:RPMI-8226), TMI sheet
[24] = cell line SF-539 (CNS:SF-539), TMI sheet
[25] = cell line SK-MEL-5 (ME:SK-MEL-5), TMI sheet
[26] = cell line SK-MEL-28 (ME:SK-MEL-28), TMI sheet
[27] = cell line SNB-19 (CNS:SNB-19), TMI sheet
[28] = cell line SR (LE:SR), TMI sheet
[29] = cell line SW-620 (CO:SW-620), TMI sheet
[30] = cell line T-47D (BR:T-47D), TMI sheet
[31] = cell line U251 (CNS:U251), TMI sheet
[32] = cell line UACC-62 (ME:UACC-62), TMI sheet
[33] = cell line UACC-257 (ME:UACC-257), TMI sheet

SMILES: COc1cc2cc(C(=O)N3CC(CCl)c4c3cc(OC(=O)N3CCN(C)C5CSSCC53)c3ccccc43)[nH]c2c(OC)c1OC (mixture of isomers) [Me-SS66T-CBI-TMI]
- GI50 (TK-10, read-out: GI50): 130 nM
- GI50 (U251, read-out: GI50): 11 nM
- GI50 (UACC-62, read-out: GI50): 15 nM
- GI50 (UACC-257, read-out: GI50): 24 nM
- NCI-60 screening: Log(GI50) [1]: -7.92
- NCI-60 screening: Log(RedIndex) [1]: 2.22
- GI50 (cell line A549/ATCC (LC:A549/ATCC), TMI sheet, read-out: NCI-60 screening: Raw GI50): 12 nM
- NCI-60 screening: Log(GI50) [2]: -7.81
- NCI-60 screening: Log(RedIndex) [2]: 2.01
- GI50 (cell line BT-549 (BR:BT-549), TMI sheet, read-out: NCI-60 screening: Raw GI50): 15 nM
- NCI-60 screening: Log(GI50) [3]: -7.58
- NCI-60 screening: Log(RedIndex) [3]: 1.58
- NCI-60 screening: Log(GI50) [4]: -7.31
- NCI-60 screening: Log(RedIndex) [4]: 1.44
- NCI-60 screening: Log(GI50) [5]: -7.74
- NCI-60 screening: Log(RedIndex) [5]: 2.03
- GI50 (cell line EKVX (LC:EKVX), TMI sheet, read-out: NCI-60 screening: Raw GI50): 18 nM
- NCI-60 screening: Log(GI50) [6]: -7.81
- NCI-60 screening: Log(RedIndex) [6]: 1.99
- GI50 (cell line HCC-2998 (CO:HCC-2998), TMI sheet, read-out: NCI-60 screening: Raw GI50): 15 nM
- NCI-60 screening: Log(GI50) [7]: -7.66
- NCI-60 screening: Log(RedIndex) [7]: 1.9
- NCI-60 screening: Log(GI50) [8]: -7.74
- NCI-60 screening: Log(RedIndex) [8]: 1.92
- GI50 (cell line HCT-116 (CO:HCT-116), TMI sheet, read-out: NCI-60 screening: Raw GI50): 18 nM
- NCI-60 screening: Log(GI50) [9]: -7.92
- NCI-60 screening: Log(RedIndex) [9]: 1.8
- GI50 (cell line HL-60(TB) (LE:HL-60(TB)), TMI sheet, read-out: NCI-60 screening: Raw GI50): 12 nM
- NCI-60 screening: Log(GI50) [10]: -7.91
- NCI-60 screening: Log(RedIndex) [10]: 1.68
- GI50 (cell line HOP-62 (LC:HOP-62), TMI sheet, read-out: NCI-60 screening: Raw GI50): 12 nM
- NCI-60 screening: Log(GI50) [11]: -7.57
- NCI-60 screening: Log(RedIndex) [11]: 1.97
- GI50 (cell line HOP-92 (LC:HOP-92), TMI sheet, read-out: NCI-60 screening: Raw GI50): 27 nM
- NCI-60 screening: Log(GI50) [12]: -7.47
- NCI-60 screening: Log(RedIndex) [12]: 1.65
- GI50 (cell line HT29 (CO:HT29), TMI sheet, read-out: NCI-60 screening: Raw GI50): 34 nM
- NCI-60 screening: Log(GI50) [13]: -7.61
- NCI-60 screening: Log(RedIndex) [13]: 1.44
- GI50 (cell line K-562 (LE:K-562), TMI sheet, read-out: NCI-60 screening: Raw GI50): 25 nM
- NCI-60 screening: Log(GI50) [14]: -7.36
- NCI-60 screening: Log(RedIndex) [14]: 1.68
- NCI-60 screening: Log(GI50) [15]: -7.91
- NCI-60 screening: Log(RedIndex) [15]: 1.96
- GI50 (cell line LOX IMVI (ME:LOX IMVI), TMI sheet, read-out: NCI-60 screening: Raw GI50): 12 nM
- NCI-60 screening: Log(GI50) [16]: -7.98
- NCI-60 screening: Log(RedIndex) [16]: 2.16
- GI50 (cell line M14 (ME:M14), TMI sheet, read-out: NCI-60 screening: Raw GI50): 10 nM
- NCI-60 screening: Log(GI50) [17]: -7.86
- NCI-60 screening: Log(RedIndex) [17]: 2.06
- NCI-60 screening: Log(GI50) [18]: -8.28
- NCI-60 screening: Log(RedIndex) [18]: 1.78
- NCI-60 screening: Log(GI50) [19]: -7.56
- NCI-60 screening: Log(RedIndex) [19]: 1.81
- GI50 (cell line MDA-MB-435 (ME:MDA-MB-435), TMI sheet, read-out: NCI-60 screening: Raw GI50): 27 nM
- NCI-60 screening: Log(GI50) [20]: -8
- NCI-60 screening: Log(RedIndex) [20]: 1.78
- NCI-60 screening: Log(GI50) [21]: -8.02
- NCI-60 screening: Log(RedIndex) [21]: 1.69
- GI50 (cell line NCI-H23 (LC:NCI-H23), TMI sheet, read-out: NCI-60 screening: Raw GI50): 9.5 nM
- NCI-60 screening: Log(GI50) [22]: -7.02
- NCI-60 screening: Log(RedIndex) [22]: 1.18
- NCI-60 screening: Log(GI50) [23]: -7.47
- NCI-60 screening: Log(RedIndex) [23]: 1.64
- GI50 (cell line RPMI-8226 (LE:RPMI-8226), TMI sheet, read-out: NCI-60 screening: Raw GI50): 34 nM
- NCI-60 screening: Log(GI50) (cell line SF-268 (CNS:SF-268), TMI sheet): -7.83
- GI50 (cell line SF-268 (CNS:SF-268), TMI sheet, read-out: NCI-60 screening: Raw GI50): 15 nM
- NCI-60 screening: Log(GI50) (cell line SF-295 (CNS:SF-295), TMI sheet): -8.01
- NCI-60 screening: Log(GI50) [24]: -8
- NCI-60 screening: Log(RedIndex) [24]: 2.12
- GI50 (cell line SF-539 (CNS:SF-539), TMI sheet, read-out: NCI-60 screening: Raw GI50): 10 nM
- NCI-60 screening: Log(GI50) [25]: -7.88
- NCI-60 screening: Log(RedIndex) [25]: 2.09
- NCI-60 screening: Log(GI50) [26]: -7.84
- NCI-60 screening: Log(RedIndex) [26]: 2.39
- GI50 (cell line SK-MEL-28 (ME:SK-MEL-28), TMI sheet, read-out: NCI-60 screening: Raw GI50): 15 nM
- NCI-60 screening: Log(GI50) [27]: -7.79
- NCI-60 screening: Log(RedIndex) [27]: 2.13
- GI50 (cell line SNB-19 (CNS:SNB-19), TMI sheet, read-out: NCI-60 screening: Raw GI50): 16 nM
- NCI-60 screening: Log(GI50) [28]: -8.4
- NCI-60 screening: Log(RedIndex) [28]: 1.84
- NCI-60 screening: Log(GI50) [29]: -7.24
- NCI-60 screening: Log(RedIndex) [29]: 1.51
- GI50 (cell line SW-620 (CO:SW-620), TMI sheet, read-out: NCI-60 screening: Raw GI50): 58 nM
- NCI-60 screening: Log(GI50) [30]: -7.3
- NCI-60 screening: Log(RedIndex) [30]: 1.58
- NCI-60 screening: Log(GI50) [31]: -7.96
- NCI-60 screening: Log(RedIndex) [31]: 2.14
- NCI-60 screening: Log(GI50) [32]: -7.82
- NCI-60 screening: Log(RedIndex) [32]: 2.01
- GI50 (cell line UACC-62 (ME:UACC-62), TMI sheet, read-out: NCI-60 screening: Raw GI50): 15 nM
- NCI-60 screening: Log(GI50) [33]: -7.62
- NCI-60 screening: Log(RedIndex) [33]: 1.92
- mean reductive index (mean over NCI cell lines, vs P-CC60): ca. 70
- GI50 (read-out: NCI-60 screening: Raw GI50): 160 nM
